Among the data in patent US10987359B2, “Oxadiazepinone derivatives and methods of treating hepatitis B infections” (priority 2016, dated 2021) are EC50 values, retold here.

The experiment has as its system HBV. Briefly: HBV replication inhibition assay (BDNA assay) in HepG2.2.15 cells. In kind it is cell-based. Conditions: HepG2.2.15 cells, read-out: DNA EC50. The method, boiled down: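 HepG2.2.15 cells with stably integrated HBV were treated with serially diluted compounds at 0.5% DMSO for 6 days, with medium and compound refreshed at day 3. Encapsidated HBV DNA from DNase-treated supernatant was quantified by branched DNA assay. EC50 came from % inhibition versus DMSO, fitted non-linearly.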

Setting [1] is: Hepatitis B virus, HepG2.2.15, HBV replication assay (BDNA assay).
Setting [2] is: HBV replication assay (BDNA assay).

Like-named read-outs stand apart in the source and are kept apart here.

As to `C[C@@H]1Cc2nn3c(c2CN1C(=O)Nc1ccc(F)c(C(F)(F)F)c1)C(=O)N(C)OC(CN(C)C)C3` (stereo in doubt) [Compound 098_D1, (4S*,9R)-4-((dimethylamino)methyl)-N-(4-fluoro-3-(trifluoromethyl)phenyl)-2,9-dimethyl-1-oxo-1,4,5,8,9,11-hexahydropyrido[4′,3′:3,4]pyrazolo[5,1-d][1,2,5]oxadiazepine-10(2H)-carboxamide], the concentration for a half-maximal effect (EC50) under setting [1] was in the range of 1 to 100 nM.

Regarding `C[C@@H]1Cc2nn3c(c2CN1C(=O)Nc1ccc(F)c(C(F)(F)F)c1)C(=O)N(C)OC(CN(C)C)C3` (stereo in doubt) [Compound 098_D2, (4R*,9R)-4-((dimethylamino)methyl)-N-(4-fluoro-3-(trifluoromethyl)phenyl)-2,9-dimethyl-1-oxo-1,4,5,8,9,11-hexahydropyrido[4′,3′:3,4]pyrazolo[5,1-d][1,2,5]oxadiazepine-10(2H)-carboxamide], the concentration for a half-maximal effect (EC50) under setting [2] is 1 to 100 nM. As to `C[C@@H]1Cc2nn3c(c2CN1C(=O)Nc1cc(Cl)c(F)cc1F)C(=O)N(C)OC(CN(C)C)C3` (stereo in doubt) [Compound 099_D1, (4S*,9R)—N-(5-chloro-2,4-difluorophenyl)-4-((dimethylamino)methyl)-2,9-dimethyl-1-oxo-1,4,5,8,9,11-hexahydropyrido[4′,3′:3,4]pyrazolo[5,1-d][1,2,5]oxadiazepine-10(2H)-carboxamide], the EC50 under setting [1] was 100 to 500 nM.

As to `C[C@@H]1Cc2nn3c(c2CN1C(=O)Nc1cc(Cl)c(F)cc1F)C(=O)N(C)OC(CN(C)C)C3` (stereo in doubt) [Compound 099_D2, (4R*,9R)—N-(5-chloro-2,4-difluorophenyl)-4-((dimethylamino)methyl)-2,9-dimethyl-1-oxo-1,4,5,8,9,11-hexahydropyrido[4′,3′:3,4]pyrazolo[5,1-d][1,2,5]oxadiazepine-10(2H)-carboxamide], the EC50 under setting [2] was in the range of 100 to 500 nM.

For the molecule `C[C@@H]1Cc2nn3c(c2CN1C(=O)Nc1cc(Br)c(F)cc1F)C(=O)N(C)OC(CN(C)C)C3` (stereo in doubt) [Compound 100_D1, (4S*,9R)—N-(5-bromo-2,4-difluorophenyl)-4-((dimethylamino)methyl)-2,9-dimethyl-1-oxo-1,4,5,8,9,11-hexahydropyrido[4′,3′:3,4]pyrazolo[5,1-d][1,2,5]oxadiazepine-10(2H)-carboxamide], under setting [2], the EC50 fell in the range of 100 to 500 nM. On the same count and under the same terms, the value for `C[C@@H]1Cc2nn3c(c2CN1C(=O)Nc1cc(Br)c(F)cc1F)C(=O)N(C)OC(CN(C)C)C3` (stereo in doubt) [Compound 100_D2, (4R*,9R)—N-(5-bromo-2,4-difluorophenyl)-4-((dimethylamino)methyl)-2,9-dimethyl-1-oxo-1,4,5,8,9,11-hexahydropyrido[4′,3′:3,4]pyrazolo[5,1-d][1,2,5]oxadiazepine-10(2H)-carboxamide] was 1 to 100 nM.

Regarding `CC[C@H]1Cc2nn3c(c2CN1C(=O)Nc1ccc(F)c(Cl)c1)C(=O)N(C)O[C@H](CO)C3` (stereo in doubt) [Compound 109_D1, (4S*,9S*)—N-(3-chloro-4-fluorophenyl)-9-ethyl-4-(hydroxymethyl)-2-methyl-1-oxo-1,4,5,8,9,11-hexahydropyrido[4′,3′:3,4]pyrazolo[5,1-d][1,2,5]oxadiazepine-10(2H)-carboxamide], the EC50 under setting [1] lay in the range of 100 to 500 nM. Turning to `CC[C@@H]1Cc2nn3c(c2CN1C(=O)Nc1ccc(F)c(Cl)c1)C(=O)N(C)O[C@H](CO)C3` (stereo in doubt) [Compound 109_D2, (4S*,9R*)—N-(3-chloro-4-fluorophenyl)-9-ethyl-4-(hydroxymethyl)-2-methyl-1-oxo-1,4,5,8,9,11-hexahydropyrido[4′,3′:3,4]pyrazolo[5,1-d][1,2,5]oxadiazepine-10(2H)-carboxamide], the EC50 under setting [1] fell in the range of 100 to 500 nM. The same measure, in the same setting: the value for `CC[C@@H]1Cc2nn3c(c2CN1C(=O)Nc1ccc(F)c(Cl)c1)C(=O)N(C)O[C@@H](CO)C3` (stereo in doubt) [Compound 109_D3, (4R*,9R*)—N-(3-chloro-4-fluorophenyl)-9-ethyl-4-(hydroxymethyl)-2-methyl-1-oxo-1,4,5,8,9,11-hexahydropyrido[4′,3′:3,4]pyrazolo[5,1-d][1,2,5]oxadiazepine-10(2H)-carboxamide] was 500 to 1000 nM; that for `CC[C@H]1Cc2nn3c(c2CN1C(=O)Nc1ccc(F)c(Cl)c1)C(=O)N(C)O[C@@H](CO)C3` (stereo in doubt) [Compound 109_D4, (4R*,9S*)—N-(3-chloro-4-fluorophenyl)-9-ethyl-4-(hydroxymethyl)-2-methyl-1-oxo-1,4,5,8,9,11-hexahydropyrido[4′,3′:3,4]pyrazolo[5,1-d][1,2,5]oxadiazepine-10(2H)-carboxamide] was 100 to 500 nM. Turning to `CNC(=O)C1Cn2nc3c(c2C(=O)N(C)O1)CN(C(=O)Nc1cc(Cl)c(F)cc1F)[C@H](C)C3` (stereo in doubt) [Compound 111_D1, (4S*,9R)—N10-(5-chloro-2,4-difluorophenyl)-N4,2,9-trimethyl-1-oxo-1,4,5,8,9,11-hexahydropyrido[4′,3′:3,4]pyrazolo[5,1-d][1,2,5]oxadiazepine-4,10(2H)-dicarboxamide], under setting [2], the EC50 was above 1000 nM. Still for that read-out and setting: for `CNC(=O)C1Cn2nc3c(c2C(=O)N(C)O1)CN(C(=O)Nc1cc(Cl)c(F)cc1F)[C@H](C)C3` (stereo in doubt) [Compound 111_D2, (4R*,9R)—N10-(5-chloro-2,4-difluorophenyl)-N4,2,9-trimethyl-1-oxo-1,4,5,8,9,11-hexahydropyrido[4′,3′:3,4]pyrazolo[5,1-d][1,2,5]oxadiazepine-4,10(2H)-dicarboxamide] the value was 1 to 100 nM; for `CNC(=O)C1Cn2nc3c(c2C(=O)N(C)O1)CN(C(=O)Nc1ccc(F)c(C#N)c1)[C@H](C)C3` (stereo in doubt) [Compound 112_D1, (4S*,9R)—N10-(3-cyano-4-fluorophenyl)-N4,2,9-trimethyl-1-oxo-1,4,5,8,9,11-hexahydropyrido[4′,3′:3,4]pyrazolo[5,1-d][1,2,5]oxadiazepine-4,10(2H)-dicarboxamide], above 1000 nM; for `CNC(=O)C1Cn2nc3c(c2C(=O)N(C)O1)CN(C(=O)Nc1ccc(F)c(C#N)c1)[C@H](C)C3` (stereo in doubt) [Compound 112_D2, (4R*,9R)—N10-(3-cyano-4-fluorophenyl)-N4,2,9-trimethyl-1-oxo-1,4,5,8,9,11-hexahydropyrido[4′,3′:3,4]pyrazolo[5,1-d][1,2,5]oxadiazepine-4,10(2H)-dicarboxamide], 1 to 100 nM. Consider `CN1O[C@H](CN)Cn2nc3c(c2C1=O)CN(C(=O)Nc1ccc(F)c(C#N)c1)CC3` (stereo in doubt) [Compound 114_E1, (S*)-4-(aminomethyl)-N-(3-cyano-4-fluoro-phenyl)-2-methyl-1-oxo-5,8,9,11-tetrahydro-4H-pyrido[2,3]pyrazolo[2,4-d][1,2,5]oxadiazepine-10-carboxamide], for which, under setting [1], the half-maximal effective concentration (EC50) was 1 to 100 nM. The same measure, in the same setting: the value for `C[C@@H]1Cc2nn3c(c2CN1C(=O)Nc1ccc(F)c(C(F)(F)F)c1)C(=O)N(C)OC(CN)C3` (stereo in doubt) [Compound 116_D1, (4S*,9R)-4-(aminomethyl)-N-(4-fluoro-3-(trifluoromethyl)phenyl)-2,9-dimethyl-1-oxo-1,4,5,8,9,11-hexahydropyrido[4′,3′:3,4]pyrazolo[5,1-d][1,2,5]oxadiazepine-10(2H)-carboxamide] was 1 to 100 nM. As to `C[C@@H]1Cc2nn3c(c2CN1C(=O)Nc1ccc(F)c(C(F)(F)F)c1)C(=O)N(C)OC(CN)C3` (stereo in doubt) [Compound 116_D2, (4R*,9R)-4-(aminomethyl)-N-(4-fluoro-3-(trifluoromethyl)phenyl)-2,9-dimethyl-1-oxo-1,4,5,8,9,11-hexahydropyrido[4′,3′:3,4]pyrazolo[5,1-d][1,2,5]oxadiazepine-10(2H)-carboxamide], the concentration for a half-maximal effect (EC50) under setting [2] was in the range of 1 to 100 nM. Take `C[C@@H]1Cc2nn3c(c2CN1C(=O)Nc1ccc(F)c(Br)c1)C(=O)N(C)OC(CN)C3` (stereo in doubt) [Compound 117_D1, (4S*,9R)-4-(aminomethyl)-N-(3-bromo-4-fluorophenyl)-2,9-dimethyl-1-oxo-1,4,5,8,9,11-hexahydropyrido[4′,3′:3,4]pyrazolo[5,1-d][1,2,5]oxadiazepine-10(2H)-carboxamide]: under setting [1], the EC50 was in the range of 1 to 100 nM. In the case of `C[C@@H]1Cc2nn3c(c2CN1C(=O)Nc1ccc(F)c(Br)c1)C(=O)N(C)OC(CN)C3` (stereo in doubt) [Compound 117_D2, (4R*,9R)-4-(aminomethyl)-N-(3-bromo-4-fluorophenyl)-2,9-dimethyl-1-oxo-1,4,5,8,9,11-hexahydropyrido[4′,3′:3,4]pyrazolo[5,1-d][1,2,5]oxadiazepine-10(2H)-carboxamide], under setting [2], the half-maximal effective concentration (EC50) fell in the range of 1 to 100 nM. With `C[C@@H]1Cc2nn3c(c2CN1C(=O)Nc1ccc(F)c(Cl)c1)C(=O)N(C)OC(COCC(F)F)C3` (stereo in doubt) [Compound 121_D2, (4R*,9R)—N-(3-chloro-4-fluorophenyl)-4-((2,2-difluoroethoxy)methyl)-2,9-dimethyl-1-oxo-1,4,5,8,9,11-hexahydropyrido[4′,3′:3,4]pyrazolo[5,1-d][1,2,5]oxadiazepine-10(2H)-carboxamide], under setting [1], the EC50 is 1 to 100 nM. Still for that read-out and setting: the value for `C[C@@H]1Cc2nn3c(c2CN1C(=O)Nc1ccc(F)c(Br)c1)C(=O)N(C)OC(COCC(F)F)C3` (stereo in doubt) [Compound 122_D1, (4S*,9R)—N-(3-bromo-4-fluorophenyl)-4-((2,2-difluoroethoxy)methyl)-2,9-dimethyl-1-oxo-1,4,5,8,9,11-hexahydropyrido[4′,3′:3,4]pyrazolo[5,1-d][1,2,5]oxadiazepine-10(2H)-carboxamide] was 1 to 100 nM.

Take `C[C@@H]1Cc2nn3c(c2CN1C(=O)Nc1ccc(F)c(Br)c1)C(=O)N(C)OC(COCC(F)F)C3` (stereo in doubt) [Compound 122_D2, (4R*,9R)—N-(3-bromo-4-fluorophenyl)-4-((2,2-difluoroethoxy)methyl)-2,9-dimethyl-1-oxo-1,4,5,8,9,11-hexahydropyrido[4′,3′:3,4]pyrazolo[5,1-d][1,2,5]oxadiazepine-10(2H)-carboxamide]: under setting [2], the EC50 is 1 to 100 nM.
